Measured values published in PubChem BioAssay AID248 (DTP/NCI, 2004).
Several values for one entry are separate records, joined by “and”; a condition that tells them apart may be missing. Identical values can stand only once. Toxic doses and inconclusive results are not listed. Cut-off read from the data, not from the text of the source: active = T/C of 150% or more; inactive = T/C below 125%.

Test system: L1210 leukemia ip in BDF1 mice, survival T/C
Experiment: NCI In Vivo Anticancer Drug Screen. Data for tumor model L1210 Leukemia (intraperitoneal) in B6D2F1 (BDF1) mice
Conditions: endpoint: mean survival time, higher = longer survival
Procedure, shortened: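 Value reflects the ratio of survival in compound-treated mice to survival in vehicle-treated controls, with both groups carrying the same transplanted tumor.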

[1] = dose: 100.0 mg/kg/injection, schedule: Q01DX009 (ip), vehicle: saline with Tween-80
[2] = dose: 200.0 mg/kg/injection, schedule: Q01DX009 (ip), vehicle: saline with Tween-80
[3] = dose: 400.0 mg/kg/injection, schedule: Q01DX009 (ip), vehicle: saline with Tween-80
[4] = dose: 50.0 mg/kg/injection, schedule: Q01DX009 (ip), vehicle: Klucel (hydroxypropylcellulose) (HPC)
[5] = dose: 100.0 mg/kg/injection, schedule: Q01DX009 (ip), vehicle: Klucel (hydroxypropylcellulose) (HPC)
[6] = dose: 100.0 mg/kg/injection, schedule: Q01DX001 (ip), vehicle: other
[7] = dose: 200.0 mg/kg/injection, schedule: Q01DX001 (ip), vehicle: other
[8] = dose: 400.0 mg/kg/injection, schedule: Q01DX001 (ip), vehicle: other
[9] = dose: 100.0 mg/kg/injection, schedule: Q01DX001 (ip), vehicle: carboxymethylcellulose (CMC)
[10] = dose: 200.0 mg/kg/injection, schedule: Q01DX001 (ip), vehicle: carboxymethylcellulose (CMC)
[11] = dose: 400.0 mg/kg/injection, schedule: Q01DX001 (ip), vehicle: carboxymethylcellulose (CMC)
[12] = dose: 100.0 mg/kg/injection, schedule: Q04DX003 (ip), vehicle: saline with Tween-80
[13] = dose: 200.0 mg/kg/injection, schedule: Q04DX003 (ip), vehicle: saline with Tween-80
[14] = dose: 400.0 mg/kg/injection, schedule: Q04DX003 (ip), vehicle: saline with Tween-80
[15] = dose: 100.0 mg/kg/injection, schedule: Q01DX001 (ip), vehicle: saline
[16] = dose: 100.0 mg/kg/injection, schedule: Q04DX003 (ip), vehicle: saline
[17] = dose: 200.0 mg/kg/injection, schedule: Q01DX001 (ip), vehicle: saline
[18] = dose: 200.0 mg/kg/injection, schedule: Q04DX003 (ip), vehicle: saline
[19] = dose: 400.0 mg/kg/injection, schedule: Q01DX001 (ip), vehicle: saline
[20] = dose: 25.0 mg/kg/injection, schedule: Q01DX009 (ip), vehicle: Klucel (hydroxypropylcellulose) (HPC)

Measured: T/C

NS(=O)(=O)c1ccc(NC(=O)Nc2ccccc2F)cc1
inactive: dose: 100.0 mg/kg/injection, schedule: Q01DX001 (ip), vehicle: saline with Tween-80 102 % of control | [1] 98 % of control and 104 % of control | dose: 100.0 mg/kg/injection, schedule: Q04DX002 (ip), vehicle: saline with Tween-80 93 % of control and 97 % of control | dose: 200.0 mg/kg/injection, schedule: Q01DX001 (ip), vehicle: saline with Tween-80 101 % of control | [2] 93 % of control and 102 % of control | dose: 200.0 mg/kg/injection, schedule: Q04DX002 (ip), vehicle: saline with Tween-80 98 % of control and 105 % of control | dose: 400.0 mg/kg/injection, schedule: Q01DX001 (ip), vehicle: saline with Tween-80 90 % of control | [3] 98 % of control and 102 % of control | dose: 400.0 mg/kg/injection, schedule: Q04DX002 (ip), vehicle: saline with Tween-80 96 % of control and 97 % of control

CN(C)N=C(c1ccccc1)c1ccccc1
inactive: [4] 86 % of control | [5] 97 % of control

COc1ccccc1C1CCCCC1=O (configuration not stated)
inactive: [6] 105 % of control | [7] 96 % of control | [8] 89 % of control

CCCCCCCCCCCCCCCC(=O)N(CCCC)CCCC
inactive: [9] 98 % of control | dose: 100.0 mg/kg/injection, schedule: Q01DX009 (ip), vehicle: carboxymethylcellulose (CMC) 96 % of control and 110 % of control | dose: 100.0 mg/kg/injection, schedule: Q04DX003 (ip), vehicle: carboxymethylcellulose (CMC) 96 % of control | [10] 102 % of control | dose: 200.0 mg/kg/injection, schedule: Q01DX009 (ip), vehicle: carboxymethylcellulose (CMC) 100 % of control and 110 % of control | dose: 200.0 mg/kg/injection, schedule: Q04DX003 (ip), vehicle: carboxymethylcellulose (CMC) 94 % of control | [11] 102 % of control | dose: 400.0 mg/kg/injection, schedule: Q01DX009 (ip), vehicle: carboxymethylcellulose (CMC) 96 % of control and 104 % of control | dose: 400.0 mg/kg/injection, schedule: Q04DX003 (ip), vehicle: carboxymethylcellulose (CMC) 96 % of control

Nc1ccc(Nc2ncnc3nc[nH]c23)cc1
inactive: [12] 102 % of control | [13] 98 % of control | [14] 107 % of control

CCCCCCCCCCC(=O)CCCC
inactive: [1] 100 % of control | [2] 102 % of control | [3] 104 % of control

O=C(N/N=C/c1ccccc1)NNCc1ccccc1
inactive: [6] 97 % of control | dose: 100.0 mg/kg/injection, schedule: Q04DX003 (ip), vehicle: other 111 % of control | [7] 97 % of control | dose: 200.0 mg/kg/injection, schedule: Q04DX003 (ip), vehicle: other 101 % of control | [8] 104 % of control | dose: 400.0 mg/kg/injection, schedule: Q04DX003 (ip), vehicle: other 86 % of control

S=c1[nH]c(Cc2ccccc2)cs1
inactive: dose: 100.0 mg/kg/injection, schedule: Q01DX001 (sc), vehicle: carboxymethylcellulose (CMC) 103 % of control | dose: 200.0 mg/kg/injection, schedule: Q01DX001 (sc), vehicle: carboxymethylcellulose (CMC) 105 % of control | dose: 400.0 mg/kg/injection, schedule: Q01DX001 (sc), vehicle: carboxymethylcellulose (CMC) 103 % of control

COC1=C(Cl)C(OC)(OC)C(Cl)=C1Cl
inactive: dose: 75.0 mg/kg/injection, schedule: Q01DX001 (ip), vehicle: carboxymethylcellulose (CMC) 107 % of control | dose: 150.0 mg/kg/injection, schedule: Q01DX001 (ip), vehicle: carboxymethylcellulose (CMC) 102 % of control | dose: 300.0 mg/kg/injection, schedule: Q01DX001 (ip), vehicle: carboxymethylcellulose (CMC) 104 % of control

CC(=O)OCC1(C[N+](C)(C)C)CC1
inactive: [15] 103 % of control | [16] 100 % of control | [17] 97 % of control | [18] 100 % of control | [19] 105 % of control | dose: 400.0 mg/kg/injection, schedule: Q04DX003 (ip), vehicle: saline 100 % of control

CC(C)(C)NCC(CN(CC(CNC(C)(C)C)C(=O)c1ccccc1)C(C)(C)C)C(=O)c1ccccc1 (configuration not stated)
inactive: dose: 12.5 mg/kg/injection, schedule: Q01DX009 (ip), vehicle: Klucel (hydroxypropylcellulose) (HPC) 104 % of control | [20] 101 % of control | [4] 106 % of control | dose: 100.0 mg/kg/injection, schedule: Q04DX003 (ip), vehicle: Klucel (hydroxypropylcellulose) (HPC) 93 % of control

CN(C)c1ccc(C=Nc2cc([N+](=O)[O-])ccc2O)cc1
inactive: [15] 96 % of control | [17] 92 % of control | [19] 91 % of control

CCC1(C(C)C)SC(N)=NC1=O (configuration not stated)
inactive: [9] 102 % of control | [10] 94 % of control | [11] 96 % of control

Cc1noc2ncnc(N)c12
inactive: [20] 102 % of control | [4] 102 % of control | [5] 95 % of control

CN(C(=O)COc1ccccc1)c1ccc([N+](=O)[O-])cc1
inactive: [1] 95 % of control | [2] 93 % of control | [3] 95 % of control

O=C(CCc1ccc(O)cc1)N/N=C/c1cc(Br)ccc1O
inactive: [1] 97 % of control | [12] 95 % of control | [2] 92 % of control | [13] 96 % of control | [3] 92 % of control | [14] 90 % of control

CCOC(=O)C1(C)CCCC1=O (configuration not stated)
inactive: dose: 100.0 mg/kg/injection, schedule: Q01DX009 (ip), vehicle: saline sonified 94 % of control | dose: 200.0 mg/kg/injection, schedule: Q01DX009 (ip), vehicle: saline sonified 97 % of control | dose: 400.0 mg/kg/injection, schedule: Q01DX009 (ip), vehicle: saline sonified 95 % of control

CCCCCC/C=C\[N+](=O)[O-]
inactive: dose: 50.0 mg/kg/injection, schedule: Q01DX001 (ip), vehicle: saline with Tween-80 109 % of control

C/C=C/Sc1ccccc1C(=O)O
inactive: dose: 50.0 mg/kg/injection, schedule: Q01DX001 (ip), vehicle: carboxymethylcellulose (CMC) 104 % of control | [9] 100 % of control | [10] 104 % of control

CCCCN(C)c1ncnc2[nH]ncc12
inactive: dose: 50.0 mg/kg/injection, schedule: Q01DX001 (ip), vehicle: saline 104 % of control | dose: 50.0 mg/kg/injection, schedule: Q01DX009 (ip), vehicle: saline 116 % of control | dose: 50.0 mg/kg/injection, schedule: Q04DX003 (ip), vehicle: saline 106 % of control | [15] 106 % of control | [16] 110 % of control | [17] 104 % of control | [18] 100 % of control

O=CN1CCCC1C(=O)O (configuration not stated)
inactive: dose: 25.0 mg/kg/injection, schedule: Q01DX009 (ip), vehicle: water 98 % of control | dose: 50.0 mg/kg/injection, schedule: Q01DX009 (ip), vehicle: water 101 % of control | dose: 100.0 mg/kg/injection, schedule: Q01DX009 (ip), vehicle: water 95 % of control | dose: 200.0 mg/kg/injection, schedule: Q01DX009 (ip), vehicle: water 101 % of control

COC(=O)C1CCC2c3ccccc3C(C1)c1ccccc12 (configuration not stated)
inactive: [1] 97 % of control | [12] 101 % of control | [2] 95 % of control | [13] 95 % of control | [3] 94 % of control | [14] 93 % of control

c1ccc(-n2nc3c(c2OCCN2CCCC2)CCCc2ccccc2-3)cc1
inactive: [1] 104 % of control

CC1(C)COCOC1
inactive: dose: 50.0 mg/kg/injection, schedule: Q01DX009 (ip), vehicle: acetone 95 % of control | dose: 100.0 mg/kg/injection, schedule: Q01DX009 (ip), vehicle: acetone 98 % of control | dose: 200.0 mg/kg/injection, schedule: Q01DX009 (ip), vehicle: acetone 88 % of control

Cc1ccc([P+](Cc2ccccc2)(c2ccccc2)c2ccc(C)cc2)cc1
inactive: dose: 15.0 mg/kg/injection, schedule: Q01DX001 (ip), vehicle: saline 96 % of control

[Cl][Pt+2][Cl].c1ccc(C2CC[N-]CC2)cc1.c1ccc(C2CC[N-]CC2)cc1
inactive: dose: 6.25 mg/kg/injection, schedule: Q04DX003 (ip), vehicle: water 100 % of control | dose: 12.5 mg/kg/injection, schedule: Q04DX003 (ip), vehicle: water 100 % of control | dose: 25.0 mg/kg/injection, schedule: Q04DX003 (ip), vehicle: water 105 % of control | dose: 50.0 mg/kg/injection, schedule: Q04DX003 (ip), vehicle: water 102 % of control
